The numbers were not newly measured in patent US20040191926A1 (priority 2001, published 2004), which cites them from elsewhere.

Positions count from the first letter of the chain named. Where two headings read alike, the source gives them in different places. Where no end group is shown, it is not given here. [ ]: non-standard residue; d: D form. F2Pmp = N[C@@H](Cc1ccc(C(F)(F)P(=O)(O)O)cc1)C(=O)O

The target of data set [1] is T1, PTP1B (Homo sapiens, UniProt P18031).
T1 sequence (P18031 1-435): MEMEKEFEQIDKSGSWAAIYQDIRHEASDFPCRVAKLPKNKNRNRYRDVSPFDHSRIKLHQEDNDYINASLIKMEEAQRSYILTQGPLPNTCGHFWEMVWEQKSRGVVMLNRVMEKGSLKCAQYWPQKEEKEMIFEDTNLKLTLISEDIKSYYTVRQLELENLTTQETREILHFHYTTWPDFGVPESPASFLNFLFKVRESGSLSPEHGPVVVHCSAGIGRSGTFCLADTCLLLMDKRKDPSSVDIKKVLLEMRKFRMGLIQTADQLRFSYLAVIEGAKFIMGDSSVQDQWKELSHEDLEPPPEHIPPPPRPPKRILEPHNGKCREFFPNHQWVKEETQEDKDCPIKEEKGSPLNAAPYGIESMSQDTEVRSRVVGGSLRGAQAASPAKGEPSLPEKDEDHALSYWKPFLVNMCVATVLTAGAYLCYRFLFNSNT
The settings on record: as PTP1B substrate (ref. 31); cited from earlier work.

The next data set concerns the target T2, PTP1B/C215S (Homo sapiens, UniProt P18031, C215S).
T2 sequence (P18031 1-435 C215S): T1 sequence (P18031 1-435) with C215S
The settings on record: isothermal titration calorimetry, pH 7.0 and 25° C.; cited from earlier work.

The target in data set [2] is T1, PTP1B. The settings on record: isothermal titration calorimetry, ionic strength of 0.15 M (ref. 33); cited from earlier work. On the technique in general: Isothermal titration calorimetry measures the heat released or taken up as one component is titrated into another.
The target of data set [3] is T1, PTP1B. The settings on record: cited from earlier work.

In the case of `O=P(O)(O)Oc1ccc(Cc2ccc(OP(=O)(O)O)cc2)cc1`, at PTP1B [1], the Km was 16 µM and the kcat is 6.9 s⁻¹.
“Ac-DADEpYL-NH2 [pTyr-containing hexapeptide PTP1B substrate]”: the Kd at PTP1B/C215S was 800 ± 100 nM.
Consider DADE[F2Pmp]L-NH2, for which, on PTP1B [2], the Kd is 240 nM. Further, the Ki at PTP1B [3] was 200 nM; on PTP1B [3] (enzyme inhibition, ionic strength of 0.15 M (ref. 33)), 250 nM; at PTP1B [3] (low ionic strength: pH 7.3 in 50 mM Hepes, 5 mM DTT and 10 mg/mL BSA buffer (ref. 37)) it was 26 nM. The “potency relative to the same peptide containing phosphonomethyl phenylalanine (Pmp)” value on PTP1B [3] was “over 1000 times”. Moreover, the IC50 at PTP1B [3] (low ionic strength: pH 6.3, 50 mM Bis-Tris, 2 mM EDTA, 5 mM DTT buffer (ref. 38)) was 30 nM.

As a reminder, the Km is the substrate concentration at which the rate is half of its maximum. Usually kcat stands for the maximal rate divided by the concentration of active sites. In general, Kd refers to the concentration at which binding is half-saturated. By Ki is commonly meant a measure of affinity in units of concentration, obtained from inhibition or displacement. For orientation: IC50 means the concentration at which inhibition is half-maximal.
